In patent US12390490B2, “Sphingolipid-based selenium compounds, methods for their preparation, and pharmaceutical uses thereof, including as antitumor agents” (MUSC FOUNDATION FOR RESEARCH DEVELOPMENT, priority 2019, dated 2025):
Entries after “also recorded” stand apart in the source; their conditions may differ.

What was measured:
HNSCC-1A cells [1] = assay: ATP levels (lethal mitophagy); assay type: cell-based, human; conditions: 4 μM, 48 hours
Procedure: FIG. 7 is a graph showing adenosine triphosphate (ATP) activity in head and neck squamous cell carcinoma (HNSCC-1A) cells incubated with 4 micromolar (μM) concentrations of a pyridinium-substituted ceramide-based compound (LCL-461), the selenite conjugated salt of a pyridinium-substituted ceramide-based compound (LCL-768), or vehicle for 48 hours. ATP levels in the samples were measured, and all samples were normalized to a standard curve and then to vehicle activity.

HNSCC-1A cells [2] = assay: Confocal immunofluorescence, colocalization of ceramide and Tom20; assay type: cell-based, human; conditions: 1 μM or 4 μM, 1.5 hours, compared to vehicle and LCL-461
HNSCC-1A cells [3] = assay: LC3B-II levels by Western blotting (autophagy); assay type: cell-based, human; conditions: 4 μM, 1.5 hours
Procedure: LC3B-II levels were measured via Western blotting. Image-processing software was used to quantify the band intensity from the blots.
(§1) Cellular lysates in radioimmunoprecipitation assay (RIPA) buffer containing a protease inhibitor cocktail (Sigma-Aldrich, St. Louis, Missouri, United States of America) were normalized by the total protein level and analyzed by sodium dodecyl sulfate-polyacrylamide gel electrophoresis (SDS-PAGE) and immunoblotting with corresponding antibodies. For immunoprecipitation, precleared cytosolic fractions were incubated overnight with 2 μg of corresponding antibodies at 4° C., followed by 1-hour incubation with Protein A/G Agarose (Santa Cruz Biotechnology, Inc., Dallas, Texas, United States of America) (50 μl of a 50% slurry). Resin was washed three to five times, and pulled-down proteins were analyzed by SDS-PAGE and Western blotting with corresponding antibodies.

HNSCC-1A cells [4] = assay: ACO2 levels by Western blotting (lethal mitophagy); assay type: cell-based, human; conditions: 4 μM, 48 hours
Procedure: FIG. 6 is a graph showing levels of aconitase 2 (ACO2) (reported as normalized cumulative pixel intensity) in head and neck squamous cell carcinoma (HNSCC-1A) cells incubated with 4 micromolar (μM) concentrations of a pyridinium-substituted ceramide-based compound (LCL-461), the selenite conjugated salt of a pyridinium-substituted ceramide-based compound (LCL-768), or vehicle for 48 hours. ACO2 levels were measured via Western blotting. Image-processing software was used to quantify the band intensity from the blots.

HNSCC-1A cells [5] = assay: Cell death / MTT cell viability assay; assay type: cell-based, human
HNSCC organoids [6] = assay: Ex vivo 2D HNSCC patient organoids, CerS1/Tom20 co-localization (mitophagy); assay type: cell-based, human; conditions: ex vivo treatment
Excerpt: FIG. 14A is a series of microscopy images showing the H&E staining (top row) and fluorescence imaging of the co-localization of translocase of outer mitochondrial membrane 20 (Tom20) and CerS1 (as a measure of mitophagy, middle row) in two-dimensional (2D) organoids developed from a patient with head and neck squamous cell carcinoma (HNSCC) in response to treatment with vehicle, LCL-768, sodium selenite (SoSe), rapamycin, or cisplatin ex vivo. Co-localization of cis-Golgi matrix protein 130 kDa (GM130) and Calnexin was used as a negative control (bottom row).
FIG. 14B is a graph showing the quantification of colocalization of Tom20 and CerS1 from the treated two-dimensional (2D) organoids described for FIG. 14A.
(§2) To validate the clinical relevance of the activation of mitophagy, 2D organoids^4 were developed using tumor tissues obtained from a patient with HNSCC. […] The co-localization of GM130/Calnexin was used as a control.

UM-SCC-1A cells [7] = assay: Subcellular accumulation by differential centrifugation and mass spectrometry; assay type: cell-based, human; conditions: 10 μM, 6-24 hours
Procedure: FIG. 13D is a graph showing the subcellular accumulation of LCL-768 (10 micromolar (μM)) after 0, 3, 6, 9, or 24 hours in the nucleus, mitochondria and cytoplasm of human head and neck squamous cell carcinoma (HNSCC) cells (UM-SCC-1A cells) as measured by mass spectrometry/lipidomics after differential centrifugation.
The effects of LCL-768 on mitophagy induction in UM-SCC-IA cells transfected stably with the shRNA against LC3B (shLC3) was studied and compared to controls (UM-SCC-1A cells transfected with a control shRNA, shSCR). […] The subcellular accumulation of LCL-768 was studied in the same cells. Nucleus, mitochondria and cytoplasm in LCL-768-treated cells were isolated by differential centrifugation and LCL-768 accumulation was measured by mass spectrometry. […] Thus, these studies further support mitochondrial accumulation and efficacy of LCL-768 in inducing mitophagy in UM-SCC-1A cells.

human glioblastoma cells = conditions: 5 μM, 24 hour treatment, compared to LCL-461 or sodium selenite
HNSCC organoids [8] = conditions: ex vivo treatment, MALDI-Imaging
Excerpt: as §2

[9] = tested on: murine glioblastoma (GL261) cells; conditions: 5 μM, 24 hour treatment
43RG32 cells = assay: Western blotting of mitophagy markers, 43RG32 cells; assay type: cell-based, human
Procedure: (§3) FIG. 10 is a composite gel image of Western blot analysis of extracts from non-cancerous human astrocytes (HA), 43RG32 and U118 cells treated with 0 micromolar (0 μM) or 5 μM LCL-768. The effects of LCL-768 on LC3-II activation, aconitase 2 (ACO2) degradation, and dynamin-related GTPase (Drp1) dephosphorylation at […] were measured as markers of mitophagy (n=3).
(§4) 43RG32 and U118 glioblastoma cells were treated with (+) or without (−) 5 micromolar (5 μM) LCL-768 and with (+) or without (−) the Drp1 inhibitor Mdivi-1. Actin was used as a loading control (n=3).
as §1

HNSCC-IA cells = assay: Confocal immunofluorescence, colocalization of CerS1 and mitochondrial protein Tom20; assay type: cell-based, human; conditions: 1 μM, 3 hours
Procedure: FIG. 3A is a series of confocal microscopy images of cells treated with 1 micromolar (1 μM) concentrations of a pyridinium-substituted ceramide-based selenium conjugated compound (LCL-768) or vehicle for 3 hours and labeled for Ceramide Synthase 1 (CerS1; top row), mitochondria (middle row) or both (bottom row).
UM-SCC-22A (squamous carcinoma) cells (50,000 per well) were plated on glass coverslips in a six-well plate for 18 hours. Cells were fixed and permeabilized using 4% paraformaldehyde (20 min) and 0.1% Triton X-100 in 1× phosphate-buffered saline (PBS) (pH 7.4) for 10 min. The cells were then blocked with 1% bovine serum albumin (BSA)/PBS (pH 7.4) for 1 hour. […] Immunofluorescence was performed using a Leica TCS SP2 AOBS confocal microscope (Leica Microsystems, Wetzler, Germany), an Olympus FV10i microscope (Olympus Corporation, Tokyo, Japan) with 543- and 488-nm channels for visualizing green and red fluorescence, or a Zeiss LSM 880 NLO Quasar confocal/multiphoton microscope with a Fast Airyscan super-resolution detector (Carl Zeiss, AG, Oberkochen, Germany). […] At least three random fields were selected for image quantification.

[10] = tested on: normal human astrocyte (HA) cells; assay: MTT cell viability, normal human astrocytes; assay type: cell-based; conditions: 5 μM, 24 hour treatment
[11] = tested on: orthotopic GB U118-xenograft-derived tumor; assay: Orthotopic GB U118 xenograft in brains of SCID mice; assay type: in vivo; conditions: 1 mg/kg/day for 14 days, female SCID mice
HNSCC-1A cells [12] = conditions: 1 and 2.5 μM, live HNSCC-1A cells
normal murine astrocytes = assay: MTT cell viability, normal murine astrocytes; assay type: cell-based; conditions: 5 μM, 24 hour treatment
[13] = Maximum tolerated dose in SCID mice; assay type: in vivo
[14] = tested on: non-cancerous adjacent tissue organoids; assay: Ex vivo non-cancerous adjacent tissue organoids, mitophagy; assay type: cell-based, human; conditions: ex vivo treatment, same patient
Excerpt: as §2

U118 cells = assay: Western blotting of mitophagy markers, U118 cells; assay type: cell-based, human
Procedure: as §3, §4, §1

UM-SCC-1A-xenografts = tested on: UM-SCC-1A-xenografts
Excerpt: Tumor volume (cubic millimeters (mm^3)) is provided for both […] mice and mice treated with vehicle as a control.

[15] = tested on: non-cancerous human astrocytes (HA); conditions: 5 μM
Procedure: as §3, §1

UM-SCC-1A cells [16] = assay: CYTO-ID mitophagy detection in UM-SCC-1A cells with shSCR or shLC3; assay type: cell-based, human

CCCCCCCCCCCCCCCCCC(=O)N[C@@H](CO)[C@H](O)/C=C/CCCCCCCCC[n+]1ccccc1.[Br-] [LCL-461, D-erythro-2-N-octadecanoyl-14-(1′-pyridinium)-sphingosine bromide, reference compound]
levels of ATP compared to vehicle (lethal mitophagy) (HNSCC-1A cells [1]): decreased levels
colocalization of ceramide and Tom20 (selenite-stress response) (HNSCC-1A cells [2]): does not cause a strong selenite-stress response
LC3B-II levels (autophagy) (HNSCC-1A cells [3]): increased LC3B-II levels
levels of ACO2 compared to vehicle (lethal mitophagy) (HNSCC-1A cells [4]): decreased levels
IC50 (HNSCC-1A cells [5]; Homo sapiens, 24 hours): ~10 µM
IC50 (HNSCC-1A cells [5]; Homo sapiens, 48 hours): ~4 µM

CCCCCCCCCCCCCCCCCC(=O)N[C@@H](CO)[C@H](O)/C=C/CCCCCCCCC[n+]1ccccc1.CCCCCCCCCCCCCCCCCC(=O)N[C@@H](CO)[C@H](O)/C=C/CCCCCCCCC[n+]1ccccc1.O=[Se]([O-])[O-] [LCL-768, D-erythro-14-(1′-pyridinium)-N-octadecanoyl-sphingosine selenite]
mitophagy (co-localization of CerS1 and Tom20) compared to vehicle-treated controls (HNSCC organoids [6]): induced mitophagy
levels of ATP compared to vehicle (lethal mitophagy) (HNSCC-1A cells [1]): decreased levels
subcellular accumulation (nucleus, mitochondria, cytoplasm) (UM-SCC-1A cells [7]): largely accumulated in the mitochondria
autophagic cell death in human glioblastoma cells (human glioblastoma cells): induced autophagic cell death
endogenous C24-ceramide compared to controls (HNSCC organoids [8]): decreased
autophagic cell death in mouse glioblastoma cells [9]: induced autophagic cell death in mouse glioblastoma cells at a higher level than either LCL-461 or sodium selenite
ACO2 degradation (mitophagy) (43RG32 cells; 5 μM): induced
LC-3B-II activation (autophagy marker) (43RG32 cells; 5 μM): induced
colocalization of CerS1 and mitochondrial protein Tom20 (HNSCC-IA cells): significant increase
cell death in human normal astrocytes [10]: not induced
tumor growth in the brain (MRI) compared to controls ([11]; osmotic pump into brain tumor): remarkably reduced tumor growth
increase of survival post-treatment ([11]; osmotic pump, vs vehicle): about 10 days
colocalization of ceramide and Tom20 (selenite-stress response) (HNSCC-1A cells [2]): increased colocalization
time of exposure at which mitophagy is occurring (HNSCC-1A cells [12]): ≤ 90 min
cell death in mouse normal astrocytes (normal murine astrocytes): not induced
maximum tolerated dose (MTD) [13]: 10 mg/kg
LC3B-II levels (autophagy) (HNSCC-1A cells [3]): increased LC3B-II levels
mitophagy induction in non-cancerous adjacent tissue organoids [14]: did not affect mitophagy induction
ACO2 degradation (mitophagy) (U118 cells; 5 μM): induced
LC-3B-II activation (autophagy marker) (U118 cells; 5 μM): induced
levels of ACO2 compared to vehicle (lethal mitophagy) (HNSCC-1A cells [4]): decreased levels
IC50 (HNSCC-1A cells [5]; 24 hours): ~10 µM
IC50 (HNSCC-1A cells [5]; 48 hours): ~4 µM
tumor growth compared to vehicle-treated mice (UM-SCC-1A-xenografts; 10 mg/kg intraperitoneal every other day, 21 days, SCID mice): inhibited tumor growth significantly
mitophagy in xenograft-derived tumors (ACO2, P-S637 Drp1, S-NO-Drp1) (UM-SCC-1A-xenografts; day 21, Western blotting): induction of mitophagy
accumulation in tumor vs adjacent non-tumorigenic tissues (UM-SCC-1A-xenografts; day 21, mass spectrometry): higher tumor accumulation
ACO2 degradation (mitophagy) ([15]; HA cells): not
LC-3B-II activation (autophagy marker) ([15]; HA cells): not
mitophagy (LC3-II activation, ACO2 degradation, Drp1 dephosphorylation as markers) ([15]; as stated in legend of FIG. 10): induces mitophagy
mitophagy induction in shSCR-controls (UM-SCC-1A cells [16]; 10 μM, 6, 9 and 24 hours, UM-SCC-1A shSCR): highly induced mitophagy
mitophagy induction after knockdown of LC3 (UM-SCC-1A cells [16]; 10 μM, UM-SCC-1A shLC3): almost completely prevented

COc1cc(-n2c(=S)[nH]c3ccccc3c2=O)c(Cl)cc1Cl [Mdivi-1, reference compound]
effect of Drp1 inhibition on LCL-768-mediated ACO2 degradation / mitophagy (43RG32 cells; with 5 μM LCL-768): almost completely prevented; also recorded: prevents
effect of Drp1 inhibition on LCL-768-mediated ACO2 degradation / mitophagy (U118 cells; with 5 μM LCL-768): almost completely prevented; also recorded: prevents

N.N.[Cl][Pt][Cl] [cisplatin, reference compound]
mitophagy (co-localization of CerS1 and Tom20) compared to vehicle-treated controls (HNSCC organoids [6]): induced mitophagy
mitophagy induction in non-cancerous adjacent tissue organoids [14]: did not affect mitophagy induction

O=[Se](O)O [sodium selenite, reference compound]
cell death in human normal astrocytes [10]: not induced
cell death in mouse normal astrocytes (normal murine astrocytes): not induced
